According to BigSolDB 2.1:

O=C1C(CCS(=O)c2ccccc2)C(=O)N(c2ccccc2)N1c1ccccc1 (stereo not drawn)
solubility (mole fraction)
Conditions | 283.15 K | 288.15 K | 293.15 K | 298.15 K | 303.15 K | 308.15 K | 313.15 K | 318.15 K | 323.15 K
in 2-butanone | 0.0136 | 0.0157 | 0.0199 | 0.0241 | 0.0288 | 0.0333 | 0.0388 | 0.0495 | 0.0601
in acetone | 0.0138 | 0.0165 | 0.02 | 0.0244 | 0.0293 | 0.0371 | 0.0452 | 0.0524 | 0.0745
in acetonitrile | 0.0131 | 0.0155 | 0.0213 | 0.0265 | 0.0334 | 0.0474 | 0.0648 | 0.0799 | 0.103
in ethanol | 0.00156 | 0.00211 | 0.0027 | 0.00356 | 0.0045 | 0.00542 | 0.00719 | 0.00956 | 0.0137
in isopropanol | 0.000256 | 0.000609 | 0.00104 | 0.00204 | 0.00302 | 0.0045 | 0.00583 | 0.0071 | 0.00937
in methanol | 0.0026 | 0.00318 | 0.00401 | 0.00508 | 0.00679 | 0.00864 | 0.0114 | 0.0176 | 0.0278
in methyl acetate | 0.00978 | 0.0109 | 0.0139 | 0.0161 | 0.0195 | 0.0222 | 0.0272 | 0.0345 | 0.0485
in n-butanol | 0.00169 | 0.00245 | 0.00314 | 0.00438 | 0.00592 | 0.00724 | 0.00971 | 0.0129 | 0.0166
in n-pentanol | 0.00284 | 0.00357 | 0.00429 | 0.0053 | 0.00627 | 0.00725 | 0.00824 | 0.00921 | 0.0109
in n-propanol | 0.00198 | 0.00266 | 0.00347 | 0.00485 | 0.00617 | 0.00752 | 0.0101 | 0.0132 | 0.0183
in sec-butanol | 0.0024 | 0.00301 | 0.00388 | 0.0047 | 0.00546 | 0.00655 | 0.00876 | 0.0109 | 0.0156
in water | 3.6e-05 | 6.32e-05 | 0.000111 | 0.000176 | 0.000264 | 0.000352 | 0.000479 | 0.000615 | 0.000777
